The assay concerns the target T1, Cloned Human Serotonin Receptor, Subtype 7 (h5HT7), expressed in CHO cells (Homo sapiens, UniProt P34969).
T1 construct: purchased PerkinElmer 6120512; host or cells: CHO cells (membranes coated on FlashPlate)
Briefly: Radioligand binding, [125I]LSD, Flashplate. To be noted: for inhibition at 1 µM: read-out: %-Inhib. (10^−6 M). On the procedure:
Radioligand binding assays were performed using the Cloned Human Serotonin Receptor, Subtype 7 (h5HT7), expressed in CHO cells, coated on Flashplate (Basic FlashPlate Cat.: SMP200) from PerkinElmer (Cat.: 6120512). The protocol assay was essentially the recommended protocol in the Technical Data Sheet by PerkinEmer Life and Analytical Sciences. The Mass membrane protein/well was typically 12 μg and the Receptor/well was about 9-10 fmoles. The Flashplate were let equilibrate at room temperature for one hour before the addition of the components of the assay mixture. The binding buffer was: 50 mM Tris-HCl, pH 7.4, containing 10 mM MgCl2, 0.5 mM EDTA and 0.5% BSA. The radioligand was [^125I]LSD at a final concentration of 0.82 nM. Nonspecific binding was determined with 50 μM of Clozapine. The assay volume was 25 μl. TopSeal-A were applied onto Flashplate microplates and they were incubated at room temperature for 240 minutes in darkness. The radioactivity were quantified by liquid scintillation spectrophotometry (Wallac 1450 Microbeta Trilux) with a count delay of 4 minutes prior to counting and a counting time of 30 seconds per well. Competition binding data were analyzed by using the LIGAND program (Munson and Rodbard, LIGAND: A versatile, computerized approach for characterization of ligand-binding systems. Anal. Biochem. 107: 220-239, 1980) and assays were performed in triplicate determinations for each point.

Where [1] appears, read: compound at 10^−6 M, radioligand [125I]LSD 0.82 nM.
[2] abbreviates: radioligand [125I]LSD 0.82 nM, triplicate determinations, read-out: IC50.

pIC50: −log10 of the molar value. Read-outs that look alike come from different tables or passages of the source.

T1 sequence (P34969 whole entry): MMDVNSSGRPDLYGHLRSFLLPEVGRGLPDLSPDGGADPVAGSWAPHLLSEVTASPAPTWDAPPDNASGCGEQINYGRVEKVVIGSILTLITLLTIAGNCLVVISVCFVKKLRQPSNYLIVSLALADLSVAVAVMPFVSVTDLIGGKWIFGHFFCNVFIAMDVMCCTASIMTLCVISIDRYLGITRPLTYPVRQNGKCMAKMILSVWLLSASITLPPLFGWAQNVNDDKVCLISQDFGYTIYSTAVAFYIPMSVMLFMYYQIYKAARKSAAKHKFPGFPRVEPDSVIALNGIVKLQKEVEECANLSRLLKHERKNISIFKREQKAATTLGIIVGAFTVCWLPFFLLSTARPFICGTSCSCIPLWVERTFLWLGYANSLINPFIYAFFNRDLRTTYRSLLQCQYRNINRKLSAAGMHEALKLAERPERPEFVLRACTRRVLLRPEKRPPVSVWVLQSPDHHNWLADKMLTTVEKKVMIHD

Consider `O=c1[nH]c2ccccc2n1C1=CCN(CCOc2ccccc2)CC1` [1-(1-(2-phenoxyethyl)-1,2,3,6-tetrahydropyridin-4-yl)-1H-benzo[d]imidazol-2(3H)-one], for which the inhibition at 1 µM under setting [1] stood at 85.3%. In addition, the negative-log IC50 (pIC50) (commonly the negative decadic logarithm of the IC50, by convention in mol/L) under setting [2] is 6.50.

On to `O=c1[nH]c2ccccc2n1C1CCN(CCOc2ccccc2)CC1` [1-(1-(2-phenoxyethyl)piperidin-4-yl)-1H-benzo[d]imidazol-2(3H)-one], for which the inhibition at 1 µM under setting [1] is 76.1%. For the same molecule, under setting [2], the negative logarithm of the IC50 (pIC50) was 6.63.

In the case of `O=c1[nH]c2ccccc2n1C1=CCN(CCCOc2ccccc2)CC1` [1-(1-(3-phenoxypropyl)-1,2,3,6-tetrahydropyridin-4-yl)-1H-benzo[d]imidazol-2(3H)-one], the inhibition at 1 µM turned out to be 67.6%. The negative-log IC50 (pIC50) under setting [2] was 5.90.

Regarding `CC(C)Oc1ccccc1N1CCN(Cc2ccc(-n3ccnc3)cc2)CC1` [1-(4-(1H-imidazol-1-yl)benzyl)-4-(2-isopropoxyphenyl)piperazine], the inhibition at 1 µM stood at 74.3%. For the same molecule, the negative logarithm of the IC50 (pIC50) under setting [2] is 6.56.

As to `CC(C)Oc1ccccc1N1CCN(Cc2ccc(Cl)nc2)CC1` [1-((6-chloropyridin-3-yl)methyl)-4-(2-isopropoxyphenyl)piperazine], the inhibition at 1 µM under setting [1] turned out to be 82.5%.

Regarding `CN(C)S(=O)(=O)c1ccc2[nH]cc(CCN)c2c1` [3-(2-aminoethyl)-N,N-dimethyl-1H-indole-5-sulfonamide], the inhibition at 1 µM amounted to 84.3%. In addition, the pIC50 under setting [2] is 6.76.

In the case of `COc1ccccc1N1CCN(CCC(O)c2ccccc2)CC1` (stereo not drawn) [3-(4-(2-methoxyphenyl)piperazin-1-yl)-1-phenylpropan-1-ol], the inhibition at 1 µM under setting [1] came out at 78.5%. Further, the pIC50 under setting [2] was 6.86.

For `CCOc1ccccc1N1CCN(Cc2c[nH]c3ccccc23)CC1` [3-((4-(2-ethoxyphenyl)piperazin-1-yl)methyl)-1H-indole], the pIC50 is 6.36 and the inhibition at 1 µM is 70%.

Regarding `COc1ccc(C(C)C)cc1CN1CCN(c2cccc3[nH]ccc23)CC1` [4-(4-(5-isopropyl-2-methoxybenzyl)piperazin-1-yl)-1H-indole], the pIC50 was 7.54 and the inhibition at 1 µM was determined as 76.6%.

As to `COc1ccccc1N1CCN(CCC(=O)Nc2ccc3c(c2)CCC3)CC1` [N-(2,3-dihydro-1H-inden-5-yl)-3-(4-(2-methoxyphenyl)piperazin-1-yl)propanamide], under setting [1], the inhibition at 1 µM was found to be 65.7%. The negative-log IC50 (pIC50) under setting [2] was 5.86.

For `O=C(c1cccs1)C1CN2CCC1CC2` (stereo not drawn) [quinuclidin-3-yl(thiophen-2-yl)methanone], the pIC50 was 6.01 and the inhibition at 1 µM was determined as 52.1%.

The values are drawn from US20110124657A1, “METHOD FOR SCREENING OF 5HT7 RECEPTOR LIGANDS BASED ON A NEW PHARMACOPHORE MODEL AND A DESCRIPTOR'S PROFILE FILTER” (LABORATORIOS DEL DR. ESTEVE, S.A., priority 2008, published 2011).
